Article PMC12254416, “The antimethanogenic efficacy and fate of bromoform and its transformation products in rumen fluid” (Scientific Reports, 2025)
“Also recorded” adds a separate entry of the source.

Key:
[1] = Compound tracing incubation in live rumen fluid (biotic plus inhibitor, B+); format: in vitro ADME, Holstein cattle; settings: for Rate constant, biological loss: difference between total loss (B+) and abiotic loss (AC+); for ½ life, biological loss: from difference of B+ and AC+ rates; for ½ life, loss (total, biotic incubation) / Rate constant, loss (total, biotic incubation): live rumen fluid B+, 40 °C; for Rate constant, loss (total, biotic incubation): compound added alone
Description: (§1) Animals used in this study were cared for according to the guidelines of William H. Miner Agricultural Research Institute (Chazy, NY) Animal Care and Use Committee. Rumen fluid was collected by cannulation from four healthy, lactating Holstein cattle maintained on the same diet for five weeks with approval from the William H. Miner Agricultural Research Institute (Chazy, NY) Animal Care and Use Committee and in compliance with SOP#106.
(§2) Donor cow profiles and dietary information can be found in supplemental information (Table S1 and Table S2). Rumen samples were strained through four layers of cheesecloth, placed on ice and shipped overnight to Bigelow Laboratory for Ocean Sciences at weekly intervals for three consecutive weeks. Upon arrival, the four samples were combined under anaerobic conditions. Sub-samples of the rumen fluid blend were flash-frozen in liquid nitrogen and stored at −20 °C for later analysis of initial pH, ammonia (NH3), and volatile fatty acids (VFAs). The rumen fluid blend was kept air-tight, on ice at 4 °C until used for experimental incubations within four days[34],[35].
(§3) This study utilized an in vitro technique of directly incubating rumen fluid for short-term experiments (< 6 h). The in vitro experiments were performed in accordance with guidelines reviewed in Yáñez-Ruiz et al.[36]. In order to investigate the response to and transformation of methanogenesis inhibitors, experiments included combinations of the following treatment groups: (i) biotic control (BC): live rumen fluid containing no inhibitors, (ii) biotic plus inhibitor (B+): live rumen fluid containing an inhibitor, (iii) abiotic control plus inhibitor (AC+): rumen fluid sterilized by autoclave (121 °C, 15 psi for 1 h) and containing an inhibitor. Prior to the incubation experiments, 80 ml aliquots of blended rumen fluid were added to 120 ml glass serum bottles and sealed with PTFE septa under anaerobic conditions (80% nitrogen, 15% carbon dioxide, 5% hydrogen). Experiments consisted of a series of 15 to 18 bottles of the same batch of refrigerated rumen fluid incubated in parallel. To revive the microbial activity at the start of each experiment, the incubation bottles, including the killed controls, were brought to 40 °C in a recirculating water bath within 15 min. The bottles thermally equilibrated for another 30 min before the experiment was initiated. The experiment was initiated after headspace sampling (T0) and the designated treatment was added. The incubation proceeded for ~ 4–6 h at 40 °C.
(§4) Two experimental designs were run: i) compound tracing experiments, to investigate the lifetime and transformation of inhibitors; and ii) dose-response experiments, to determine the sensitivity of methanogenesis to inhibitors (Fig. 1). Dose-response experiments included biotic controls (BC), and a series of nine biotic plus inhibitor treatments (B+) across a range of concentrations (0 to 25 µM) containing the specific inhibitor (bromoform (Sigma-Aldrich 99%), dibromomethane (Sigma-Aldrich 99%), bromomethane (Supelco TraceCERT®), or Asparagopsis taxiformis. The A. taxiformis was collected fresh from a marine site in the subtropical Atlantic (27° 59’ 19”, −15° 22’ 12”) and stored frozen at −20 °C. The sample material contained 0.33 ± 0.02 mg bromoform g^−1 dry weight.
(§5) Tracing experiment treatments included biotic controls (BC), biotic plus inhibitors (B+), and abiotic plus inhibitors (AC+) of a single concentration of the target compound, each in triplicate. Target compounds bromoform, dibromomethane, and bromomethane, were injected through the septa as solutions in methanol (VWR 99.9%). The corresponding levels of methanol, which ranged from 30 to 950 µl, were added to the control treatments, depending on the desired inhibitor concentration. The A. taxiformis was cut into fine pieces, homogenized, pre-weighed into PTFE capsules and placed in the incubation bottles prior to incubation. […]

[2] = Compound tracing incubation in autoclaved rumen fluid (abiotic control plus inhibitor, AC+); format: in vitro ADME, Holstein cattle
Description: as §1, §2, §3, §4, §5

[3] = tested on: CH4 production in rumen fluid; experiment: CH4 production in in vitro rumen fluid incubations (dose-response and single-dose inhibition); format: cell-based, Holstein cattle; settings: for Concentration range of the dose response: CH4 production vs inhibitor concentration, for bromomethane the extent of the range; for Concentration at which the sigmoidal concentration-inhibition relationship occurred: abstract; for Time after addition to reduced CH4 production: bromoform addition, vs control; for CH4 production relative to the no treatment control: concentrations > 2 µmol l^−1; for maximum value of CH4 production (dose-response fit) / minimum value of CH4 production (dose-response fit): cumulative CH4 over 240 min, 80 ml rumen fluid; for maximum value of CH4 production (dose-response fit) / minimum value of CH4 production (dose-response fit) / EC50 / coefficient b of log-logistic dose-response curve: ± standard error; for EC50: cumulative CH4 over 240 min vs initial concentration, read-out: ec-50, 50 % inhibition of CH4 production; for coefficient b of log-logistic dose-response curve: cumulative CH4 production over 240 min vs initial inhibitor concentration
Description: as §1, §2, §3, §4, §5

[4] = Loss to headspace volume estimated from Henry's Law solubility constants; format: physicochemical; settings: based on Henry's Law solubility constants, during the incubations
Experimental: Based on the Henry’s Law solubility constants for bromoform and dibromomethane, loss to the headspace volume during the incubations would have amounted to < 5% of the dissolved pool of either compound and therefore, had minimal influence on estimated loss and turnover rates. In contrast, approximately 40% of any bromomethane produced during the tracing experiments may have been lost to the headspace gas sampling and may have contributed to the lack of evidence of bromomethane production.

[5] = set-up: method as in earlier work; settings: incubation times up to 72 h; ref 33 Romero et al.; cited from earlier work
[6] = bromoform-amended live rumen fluid (Exp1)
[7] = bromoform-amended autoclaved rumen fluid (Exp1)

Compound | Rate constant, biological loss [1] | ½ life, biological loss [1] [min] | ½ life, loss (total, biotic incubation) [1] | Rate constant, loss (total, biotic incubation) [1] | ½ life, abiotic loss ([2]; autoclaved rumen fluid AC+) [min] | Concentration range of the dose response [3] [µmol/L] | Concentration at which the sigmoidal concentration-inhibition relationship occurred [3] [µM] | CH4 production relative to the no treatment control [3] [%] | maximum value of CH4 production (dose-response fit) [3] [µmol] | minimum value of CH4 production (dose-response fit) [3] [µmol] | EC50 [3] [nM] | coefficient b of log-logistic dose-response curve [3] | Loss to the headspace volume, share of the dissolved pool / of compound produced [4] | other results
BrC(Br)Br [bromoform] | -19.6 ± 1.2 x 10^-3min^-1 | 35 | ~ 26 min | -26.4 ± 1.3 x 10^-3min^-1 | 102 | 1 to 2 | 1 to 2 | < 20 | 681 ± 14 | 98 ± 16 | 1370 ± 30 | 5.98 ± 0.76 | < 5% | Loss rate in live rumen fluid relative to autoclaved control ([1]; B+ vs AC+): more than 3 fold; ½ life, loss (total, biotic incubation) ([1]; listed as Bromoform): 26 min; Rate constant, abiotic loss ([2]; autoclaved rumen fluid AC+, 40 °C): -6.8 ± 0.3 x 10^-3min^-1; Inhibition threshold for CH4 production [3]: ~ 1 µmol l^−1; CH4 inhibition vs biotic control ([3]; bromoform 3 µmol l^−1, after 260 min (Exp 4)): 78%; Time after addition to reduced CH4 production [3]: < 60 min; Time after addition to reduced CH4 production ([3]; listed as CHBr3): ≤ 60 min; Inhibition of CH4 production ([3]; total bromoform addition of 3 µmol l^−1, ~300 min (Exp 3)): > 75%
CBr [bromomethane] |  |  |  |  |  |  |  |  | 616 ± 6 | 182 ± 7 | 5340 ± 140 | 3.09 ± 0.24 | approximately 40% | Production of bromomethane in incubations ([1]; tracing incubations, limit of detection 8 nmol l^−1): no bromomethane was detected; also recorded: not detected; also recorded: no detectable bromomethane production; Concentration required to achieve a maximal inhibitory effect ([3]; CH4 production dose response (Exp7)): > 20 µmol/L; EC50 relative to bromoform and dibromomethane ([3]; higher): ~5 fold
BrCBr [dibromomethane] | -0.826 ± 0.113 x 10^-3min^-1 | 839 | 775 min | -0.894 ± 0.091 x 10^-3min^-1 | 10200 | 1 to 2 | 1 to 2 | < 20 | 763 ± 16 | 146 ± 8 | 1360 ± 30 | 7.46 ± 0.92 | < 5% | Peak dibromomethane as % of the highest observed bromoform, biotic ([1]; B + A.tax (Exp 4)): 22.0%; Peak level of dibromomethane after A. taxiformis addition, biotic ([1]; B + A.tax (Exp 4)): 0.076 ± 0.006 µmol/L; Dibromomethane production rate [1, 6]: 0.0353 ± 0.0024 µmol/L/min; Yield of dibromomethane, % of the initial bromoform added [1, 6]: 22.1%; Biotic loss slower than the loss of bromoform ([1]; dibromomethane vs bromoform, biotic): ~30 fold; Dibromomethane as % of the maximum bromoform concentrations, abiotic ([2]; AC + A.tax (Exp 4)): 1.3%; Dibromomethane at the end of the incubation after A. taxiformis addition, abiotic ([2]; AC + A.tax (Exp 4)): 0.030 ± 0.001 µmol/L; Dibromomethane abiotic production rate [2, 7]: 0.0014 ± 0.0001 µmol/L/min; Yield of dibromomethane, % of the initial bromoform added, abiotic [2, 7]: 3.4%; Yield of dibromomethane, % of the initial bromoform added, abiotic ([2]; bromoform-amended autoclaved rumen fluid (Exp1), listed as Dibromomethane): 3.4%; Dibromomethane produced as proportion of the degraded bromoform [5]: 20 to 40%
